Data on 36 compounds can be found in publication PMC8510097 (Molecules, 2021).

As a reminder, the pIC50 is −log10 of the IC50, conventionally taken in molar units. What is called pEC50 is the EC50 on a negative log10 scale, so that one unit is a factor of ten. As usually defined, the IC50 is the concentration that gives 50% inhibition.

The test system of experiment [1] is SARS-CoV-2. In words: Antiviral CPE protection assay in VeroE6 cells in the presence of P-glycoprotein inhibitor CP-100356 (CellTiter-Glo). It counts as cell-based. Particulars: 2µM CP-100356, MOI 0.01, 72 hours.
For experiment [2], the target named is T1, SARS-CoV-2 3CLpro (Severe acute respiratory syndrome coronavirus 2, UniProt P0DTD1). In words: SARS-CoV-2 3CLpro inhibition assay, continuous fluorescence with FRET substrate UIVT3. Conditions: for pIC50: 10 min pre-incubation of enzyme with compound, read-out: SARS CoV-2 3CLpro IC50; for IC50: values given in nM, read-out: SARS-CoV-2 3CLpro enzyme IC50. Format: biochemical.

The test system of experiment [3] is SARS-CoV-2 strain JPN/TY/WK-521. In words: Antiviral assay, quantitative VeroE6 cell-based assay with RNA-qPCR.
Experiment [4] concerns SARS-CoV 3CL protease. Particulars: Figure 1; read-out: IC50 (SARS-CoV 3C); cited from earlier work.
The test system of experiment [5] is SARS-CoV. Particulars: cited from earlier work.
Experiment [6] concerns SARS-CoV-2^wk-521. Details: method as in PMID 32820005, PMID 33510133. Conditions: VeroE6 cells; cited from earlier work.
Experiment [7] concerns SARS-CoV-2 strain JPN/TY/WK-521. Also on record: method as in PMID 32820005, PMID 33510133. Conditions: VeroE6 cells; read-out: antiviral EC50; cited from earlier work.
Experiment [8] concerns the target T1, SARS-CoV-2 3CLpro. In words: Mass analysis of enzyme-inhibitor complex (LC-MS). Particulars: 2 μM protein, 20 μM compound, ten minutes. The procedure:
The enzyme inhibitory activity (IC50 values) of synthetic active esters was assessed using a continuous fluorescence assay and the FRET-based substrate UIVT3 (HiLyteFluor488^TM-[…] -QXL520-NH2 (HPLC > 90%); Anaspec, Fremont, CA, USA) described by us previously. The antiviral activity (EC50 value) of compounds was evaluated using quantitative VeroE6 cell-based assay with RNA-qPCR as described by us recently. […] We presume that the mode of inhibition involves covalent bond formation with catalytic Cys145 as observed in our previous X-ray structural analysis of inhibitor-bound SARS-CoV-2 3CL protease as well as mass spectral analysis. The irreversible enzyme acylation of the NSAIDs-based inhibitor was examined by using […]. Authentic SARS-CoV-2 3CLpro was incubated with inhibitor 8a and then analyzed with untreated enzyme. As expected, we were able to see a signal for enzyme-bound compound 8a on the LC–MS spectrum that corresponds to acylation of 3CL protease with a mass shift of +212 Daltons.
Purified SARS-CoV-2 3CLpro was injected onto a Superdex™ 200 Increase 10/300 GL gel filtration column (GE Healthcare) equilibrated in 20 mM HEPES pH 7.5. […]
Positive ion spectra obtained were analyzed using Agilent MassHunter Qualitative Analysis Software B.06 and the deconvolution spectra were generated using Agilent MassHunter BioConfirm software B.06.

The mark [9] stands for this setting: Severe acute respiratory syndrome coronavirus 2, Vero C1008, 72 h, VeroE6 cells, RNA-qPCR, MOI 0.05, 72 h, read-out: SARS-CoV-2 EC50.
The mark [10] stands for this setting: VeroE6 cells, RNA-qPCR, MOI 0.05, 72 h, read-out: SARS-CoV-2 EC50.

Each structure is given as a SMILES string. pEC50, pIC50: −log10 of the molar value. Where two headings read alike, the source gives them in different places. Bounds are passed on as bounds.

As to `Cc1ccc(C(=O)Oc2cncc(Cl)c2)c(O)c1` [Compound 14a, 5-chloropyridin-3-yl 2-hydroxy-4-methylbenzoate], the “antiviral activity in the presence of P-glycoprotein inhibitor CP-100356” value in experiment [1] is on record as “none of these compounds exhibited any significant antiviral activity”.

For `O=C(Oc1cncc(Cl)c1)c1c(O)cccc1F` [C00017], in experiment [2], the pIC50 is 3.97. Also, in experiment [3] (setting [9]), the pEC50 was less than 4.00.

In the case of `Cc1ccc(C(=O)Oc2cc(C)ccc2C(=O)Oc2cncc(Cl)c2)c(O)c1` [C00011], the pIC50 in experiment [2] is 5.85. Moreover, the pEC50 in experiment [3] (setting [9]) was less than 4.00.

In the case of `Cc1ccc(O)c(C(=O)Oc2cncc(Cl)c2)c1` [C00012], the pIC50 in experiment [2] was 6.41. In experiment [3] (setting [10]), the pEC50 was 4.33.

With `Cc1cccc(O)c1C(=O)Oc1cccc(C)c1C(=O)Oc1cncc(Cl)c1` [C00016], the pIC50 in experiment [2] is 4.81. In addition, the pEC50 in experiment [3] (setting [9]) is less than 4.00.

Regarding `O=C(Oc1cncc(Cl)c1)c1cccs1` [Compound 2], the pIC50 in experiment [4] is 6.30. The “antiviral activity (in words)” value in experiment [5] is “did not show antiviral activity”.

`Cc1cccc(O)c1C(=O)Oc1cncc(Cl)c1` [C00015]: the pIC50 in experiment [2] is 5.37. The negative-log EC50 (pEC50) in experiment [3] (setting [9]) is less than 4.00.

Turning to `COc1ccc2cc([C@@H](C)C(=O)Oc3cncc(Cl)c3)ccc2c1` [Compound 9a, 5-chloropyridin-3-yl (R)-2-(6-methoxynaphthalen-2-yl)propanoate], in experiment [2], the “fold improvement of enzyme IC50 over the (S)-naproxen ester 8a” value is given as “over 4 fold” and the IC50 stood at 160 nM. Further, the “antiviral activity in the presence of P-glycoprotein inhibitor CP-100356” value in experiment [1] was “none of these compounds exhibited any significant antiviral activity”.

On to `O=C(Oc1ccccc1C(=O)Oc1cncc(Cl)c1)c1ccccc1O` [C00007], for which, in experiment [2], the pIC50 is 4.77. The pEC50 in experiment [3] (setting [10]) is 4.20.

As for `Cc1ccc(O)c(C(=O)Oc2ccc(C)cc2C(=O)Oc2ccc(C)cc2C(=O)Oc2cncc(Cl)c2)c1` [C00014], in experiment [2], the pIC50 is 5.43. Moreover, the pEC50 in experiment [3] (setting [9]) was less than 4.00.

Turning to `O=C(Oc1cncc(Cl)c1)c1cccc2[nH]ccc12` [Compound 3], the “activity in immunocytochemistry assay (in words)” value in experiment [6] is “blocked the infectivity and cytopathic effect”.

For the compound `COc1ccc2cc([C@@H](C)C(=O)Oc3cncc(Cl)c3)ccc2c1` [C00003], in experiment [2], the pIC50 was 6.80. Also, in experiment [3] (setting [9]), the negative-log EC50 (pEC50) was less than 4.00.

For `O=C(Oc1cncc(Cl)c1)c1ccccc1O` [C00006], the pEC50 in experiment [3] (setting [9]) was less than 4.00.

With `Cc1ccc(O)c(C(=O)Oc2cncc(Cl)c2)c1` [Compound 15a, 5-chloropyridin-3-yl 2-hydroxy-5-methylbenzoate], the “antiviral activity in the presence of P-glycoprotein inhibitor CP-100356” value in experiment [1] is given as “none of these compounds exhibited any significant antiviral activity”. For the same compound, the pEC50 in experiment [3] (setting [9]) was 4.19 to 4.62.

For `CC(=O)Nc1cccc(C(=O)Oc2cncc(Cl)c2)c1` [C00018], in experiment [2], the pIC50 is 5.95. Also, in experiment [3] (setting [9]), the pEC50 is less than 4.00.

Regarding `O=C(Oc1cncc(Cl)c1)c1ccccc1O` [Compound 12a, 5-chloropyridin-3-yl 2-hydroxybenzoate], the pIC50 in experiment [2] was 5.46.

For `Cc1ccc(C(=O)Oc2cncc(Cl)c2)c(O)c1` [C00010], the pIC50 in experiment [2] is 6.27. Moreover, the negative logarithm of the EC50 (pEC50) in experiment [3] (setting [9]) is less than 4.00.

In the case of `COc1ccc2c(c1)c(CC(=O)Oc1cncc(Cl)c1)c(C)n2C(=O)c1ccc(Cl)cc1` [C00005], the negative-log IC50 (pIC50) in experiment [2] is 5.27. For the same compound, the pEC50 in experiment [3] (setting [10]) was 4.52.

In the case of `O=C(Oc1ccccc1C(=O)Oc1cncc(Cl)c1)c1ccccc1O` [Compound 12b, 5-chloropyridin-3-yl 2-((2-hydroxybenzoyl)oxy)benzoate], the “fold reduction in enzyme activity versus monoester 12a” value in experiment [2] turned out to be 5 fold. For the same compound, the pEC50 in experiment [3] (setting [9]) was 4.19.

Regarding `O=C(Oc1cncc(Cl)c1)c1cccc2c1CCN2` [Compound 4], the pEC50 in experiment [7] is 4.82. Further, in experiment [6], the “activity in immunocytochemistry assay (in words)” value was “potent enzyme inhibitory and antiviral activity”.

As for `Cc1ccc(O)c(C(=O)Oc2ccc(C)cc2C(=O)Oc2cncc(Cl)c2)c1` [C00013], the pIC50 in experiment [2] was 6.13. In experiment [3] (setting [10]), the pEC50 is 4.32.

Turning to `Cc1cccc(C(=O)Oc2cncc(Cl)c2)c1O` [C00008], the negative logarithm of the IC50 (pIC50) in experiment [2] was 6.19. Also, the pEC50 in experiment [3] (setting [9]) was less than 4.00.

For the compound `CC(=O)Nc1cc(C(=O)Oc2cncc(Cl)c2)ccc1F` [Compound 19a, 5-chloropyridin-3-yl 3-acetamido-4-fluorobenzoate], in experiment [2], the “enzyme inhibitory activity (in words)” value is given as “low micromolar range”.

For `COc1ccc2cc([C@H](C)C(=O)Oc3cncc(Cl)c3)ccc2c1` [Compound 8a, 5-chloropyridin-3-yl (S)-2-(6-methoxynaphthalen-2-yl)propanoate], the IC50 in experiment [2] turned out to be 670 nM. In experiment [8], the “mass shift of 3CL protease on acylation by inhibitor” value was “+212 Daltons”.

On to `O=C(On1nnc2ccccc21)c1ccc2[nH]ccc2c1` [Compound 1], for which, in experiment [4], the negative-log IC50 (pIC50) is 6.70. Further, in experiment [5], the “antiviral activity (in words)” value is “did not show antiviral activity”.

In the case of `COc1ccc2cc([C@H](C)C(=O)Oc3cncc(Cl)c3)ccc2c1` [C00002], the pIC50 in experiment [2] is 6.17. In experiment [3] (setting [9]), the pEC50 is less than 4.00.

Consider `CC(=O)Nc1cccc(C(=O)Oc2cncc(Cl)c2)c1` [Compound 18a, 5-chloropyridin-3-yl 3-acetamidobenzoate], for which the “enzyme inhibitory activity (in words)” value in experiment [2] is “low micromolar range”.

Take `CC(=O)Nc1cc(C(=O)Oc2cncc(Cl)c2)ccc1F` [C00019]: in experiment [2], the pIC50 was 5.82. For the same compound, the pEC50 in experiment [3] (setting [9]) was less than 4.00.

Turning to `COc1ccc2c(c1)c(CC(=O)Oc1cncc(Cl)c1)c(C)n2C(=O)c1ccc(Cl)cc1` [Compound 11a, 5-chloropyridin-3-yl 2-(1-(4-chlorobenzoyl)-5-methoxy-2-methyl-1H-indol-3-yl)acetate], the “enzyme inhibitory activity (in words)” value in experiment [2] is listed as “significant reduction in enzyme activity”. Besides, the “antiviral activity in the presence of P-glycoprotein inhibitor CP-100356” value in experiment [1] is given as “none of these compounds exhibited any significant antiviral activity”. For the same compound, the pEC50 in experiment [3] (Severe acute respiratory syndrome coronavirus 2, Vero C1008, 72 h, read-out: SARS-CoV-2 EC50, VeroE6 cells, RNA-qPCR, MOI 0.05, 72 h) is 4.52.

In the case of `CC(C)Cc1ccc(C(C)C(=O)Oc2cncc(Cl)c2)cc1` (stereo not shown) [Compound 10a, 5-chloropyridin-3-yl 2-(4-isobutylphenyl)propanoate], the half-inhibitory concentration (IC50) in experiment [2] was 810 nM.

For `Cc1cccc(C(=O)Oc2c(C)cccc2C(=O)Oc2cncc(Cl)c2)c1O` [Compound 13b, 5-chloropyridin-3-yl 2-((2-hydroxy-3-methylbenzoyl)oxy)-3-methylbenzoate], in experiment [2], the pIC50 was 5.31. In addition, the pEC50 in experiment [3] (setting [9]) is 4.62.

Turning to `Cc1cccc(C(=O)Oc2c(C)cccc2C(=O)Oc2cncc(Cl)c2)c1O` [C00009], the pIC50 in experiment [2] was 5.31. In addition, the pEC50 in experiment [3] (setting [10]) was 4.62.

`CCC(CC)COC(=O)[C@H](C)N[P@](=O)(OC[C@H]1O[C@@](C#N)(c2ccc3c(N)ncnn23)[C@H](O)[C@@H]1O)Oc1ccccc1` [Compound 5, remdesivir, reference compound]: the pEC50 in experiment [3] (Severe acute respiratory syndrome coronavirus 2, Vero C1008, read-out: antiviral EC50 (table footnote a, reference compounds), VeroE6 cells) is 5.62.

For the compound `Cc1cccc(C(=O)Oc2cncc(Cl)c2)c1O` [Compound 13a, 5-chloropyridin-3-yl 2-hydroxy-3-methylbenzoate], the IC50 in experiment [2] was found to be 650 nM.

For `CC(C)Cc1ccc(C(C)C(=O)Oc2cncc(Cl)c2)cc1` (stereo not shown) [C00004], in experiment [2], the pIC50 was 6.09. Besides, the pEC50 in experiment [3] (setting [9]) is less than 4.00.

Regarding `CC(=O)Oc1ccccc1C(=O)Oc1cncc(Cl)c1` [C00001], the pIC50 in experiment [2] is 6.44.
